# Calls of active or inactive are those of the source. The rule behind the calls is not given here.
# System: CCRIS mutagenicity, Ames/micronucleus/aberration tests
# Test: CCRIS mutagenicity studies
# [1] = Test System: AMES SALMONELLA TYPHIMURIUM, Strain/Indicator: TA98, Metabolic Activation: NONE, Method: PREINCUBATION
# [2] = Test System: AMES SALMONELLA TYPHIMURIUM, Strain/Indicator: TA1535, Metabolic Activation: NONE, Method: PREINCUBATION
# [3] = Test System: AMES SALMONELLA TYPHIMURIUM, Strain/Indicator: TA1537, Metabolic Activation: NONE, Method: PREINCUBATION
# [4] = Test System: AMES SALMONELLA TYPHIMURIUM, Strain/Indicator: TA98, Metabolic Activation: NONE, Method: STANDARD PLATE
# [5] = Test System: AMES SALMONELLA TYPHIMURIUM, Strain/Indicator: TA100, Metabolic Activation: NONE, Method: STANDARD PLATE
# [6] = End Point: IN VITRO CHROMOSOMAL ABERRATIONS, Test System: CHL CELLS, Metabolic Activation: RAT, LIVER, S-9, SODIUM PHENOBARBITAL AND 5,6-BENZOFLAVONE
compound,measurement,setting,value
CCCCOC(=O)c1ccc(N)cc1,mutagenic call,"Test System: AMES SALMONELLA TYPHIMURIUM, Strain/Indicator: TA98, Metabolic Activation: HAMSTER, LIVER, S-9, AROCLOR 1254, Method: PREINCUBATION",inactive; negative
same,mutagenic call,[1],inactive; negative
same,mutagenic call,"Test System: AMES SALMONELLA TYPHIMURIUM, Strain/Indicator: TA98, Metabolic Activation: RAT, LIVER, S-9, AROCLOR 1254, Method: PREINCUBATION",inactive; negative
same,mutagenic call,"Test System: AMES SALMONELLA TYPHIMURIUM, Strain/Indicator: TA100, Metabolic Activation: HAMSTER, LIVER, S-9, AROCLOR 1254, Method: PREINCUBATION",inactive; negative
same,mutagenic call,"Test System: AMES SALMONELLA TYPHIMURIUM, Strain/Indicator: TA100, Metabolic Activation: NONE, Method: PREINCUBATION",inactive; negative
same,mutagenic call,"Test System: AMES SALMONELLA TYPHIMURIUM, Strain/Indicator: TA100, Metabolic Activation: RAT, LIVER, S-9, AROCLOR 1254, Method: PREINCUBATION",inactive; negative
same,mutagenic call,"Test System: AMES SALMONELLA TYPHIMURIUM, Strain/Indicator: TA1535, Metabolic Activation: HAMSTER, LIVER, S-9, AROCLOR 1254, Method: PREINCUBATION",inactive; negative
same,mutagenic call,[2],inactive; negative
same,mutagenic call,"Test System: AMES SALMONELLA TYPHIMURIUM, Strain/Indicator: TA1535, Metabolic Activation: RAT, LIVER, S-9, AROCLOR 1254, Method: PREINCUBATION",inactive; negative
same,mutagenic call,"Test System: AMES SALMONELLA TYPHIMURIUM, Strain/Indicator: TA1537, Metabolic Activation: HAMSTER, LIVER, S-9, AROCLOR 1254, Method: PREINCUBATION",inactive; negative
same,mutagenic call,[3],inactive; negative
same,mutagenic call,"Test System: AMES SALMONELLA TYPHIMURIUM, Strain/Indicator: TA1537, Metabolic Activation: RAT, LIVER, S-9, AROCLOR 1254, Method: PREINCUBATION",inactive; negative
O=C(NC(=S)NNC(=O)c1cc(O)ccc1O)c1ccccc1,mutagenic call,"Test System: AMES SALMONELLA TYPHIMURIUM, Strain/Indicator: TA1530, Metabolic Activation: NONE, Method: STANDARD PLATE",active; positive
CC[C@@]1(O)C[C@H](O[C@H]2C[C@H](N(C)C)[C@H](O[C@H]3C[C@H](O)[C@H](O[C@H]4C[C@H](O)[C@H](O)[C@H](C)O4)[C@H](C)O3)[C@H](C)O2)c2c(cc3c(c2O)C(=O)c2c(O)ccc(O)c2C3=O)[C@H]1C(=O)OC,mutagenic call,"Test System: AMES SALMONELLA TYPHIMURIUM, Strain/Indicator: TA97, Metabolic Activation: NONE, Method: STANDARD PLATE",inactive; negative
same,mutagenic call,[4],inactive; negative
same,mutagenic call,"Test System: AMES SALMONELLA TYPHIMURIUM, Strain/Indicator: TA102, Metabolic Activation: NONE, Method: STANDARD PLATE",active; positive
same,mutagenic call,"Test System: AMES SALMONELLA TYPHIMURIUM, Strain/Indicator: TA104, Metabolic Activation: NONE, Method: STANDARD PLATE",active; positive
same,mutagenic call,"Test System: AMES SALMONELLA TYPHIMURIUM, Strain/Indicator: TA2637, Metabolic Activation: NONE, Method: STANDARD PLATE",inactive; negative
C=Cc1ccccn1,mutagenic call,"End Point: In vitro chromosomal aberrations, Test System: Chinese hamster lung (CHL/IU) cells, Metabolic Activation: Rat, Liver, S9, Phenobarbital and 5,6-benzoflavone",active; positive (structural changes)
same,mutagenic call,[4],inactive; negative
same,mutagenic call,"Test System: AMES SALMONELLA TYPHIMURIUM, Strain/Indicator: TA98, Metabolic Activation: RAT, LIVER, S-9, AROCLOR 1254, Method: STANDARD PLATE",inactive; negative
same,mutagenic call,[5],inactive; negative
same,mutagenic call,"Test System: AMES SALMONELLA TYPHIMURIUM, Strain/Indicator: TA100, Metabolic Activation: RAT, LIVER, S-9, AROCLOR 1254, Method: STANDARD PLATE",inactive; negative
same,mutagenic call,"Test System: AMES SALMONELLA TYPHIMURIUM, Strain/Indicator: TA1535, Metabolic Activation: NONE, Method: STANDARD PLATE",inactive; negative
same,mutagenic call,"Test System: AMES SALMONELLA TYPHIMURIUM, Strain/Indicator: TA1535, Metabolic Activation: RAT, LIVER, S-9, AROCLOR 1254, Method: STANDARD PLATE",inactive; negative
same,mutagenic call,"Test System: AMES SALMONELLA TYPHIMURIUM, Strain/Indicator: TA1538, Metabolic Activation: NONE, Method: STANDARD PLATE",inactive; negative
same,mutagenic call,"Test System: AMES SALMONELLA TYPHIMURIUM, Strain/Indicator: TA1538, Metabolic Activation: RAT, LIVER, S-9, AROCLOR 1254, Method: STANDARD PLATE",inactive; negative
same,mutagenic call,"Test System: Ames Salmonella typhimurium, Strain/Indicator: TA98, Metabolic Activation: None, Method: Preincubation",inactive; negative
same,mutagenic call,"Test System: Ames Salmonella typhimurium, Strain/Indicator: TA98, Metabolic Activation: Rat, Liver, S9, Sodium phenobarbital and 5,6-benzoflavone (10%), Method: Preincubation",inactive; negative
same,mutagenic call,"Test System: Ames Salmonella typhimurium, Strain/Indicator: TA100, Metabolic Activation: None, Method: Preincubation",inactive; negative
same,mutagenic call,"Test System: Ames Salmonella typhimurium, Strain/Indicator: TA100, Metabolic Activation: Rat, Liver, S9, Sodium phenobarbital and 5,6-benzoflavone (10%), Method: Preincubation",inactive; negative
same,mutagenic call,"Test System: Ames Salmonella typhimurium, Strain/Indicator: TA1535, Metabolic Activation: None, Method: Preincubation",inactive; negative
same,mutagenic call,"Test System: Ames Salmonella typhimurium, Strain/Indicator: TA1535, Metabolic Activation: Rat, Liver, S9, Sodium phenobarbital and 5,6-benzoflavone (10%), Method: Preincubation",inactive; negative
same,mutagenic call,"Test System: Ames Salmonella typhimurium, Strain/Indicator: TA1537, Metabolic Activation: None, Method: Preincubation",inactive; negative
same,mutagenic call,"Test System: Ames Salmonella typhimurium, Strain/Indicator: TA1537, Metabolic Activation: Rat, Liver, S9, Sodium phenobarbital and 5,6-benzoflavone (10%), Method: Preincubation",inactive; negative
same,mutagenic call,"Test System: E. coli, Strain/Indicator: WP2uvrA/pKM101, Metabolic Activation: Rat, Liver, S9, Sodium phenobarbital and 5,6-benzoflavone (10%), Method: Preincubation",active; positive
same,mutagenic call,"Test System: UDS RAT HEPATOCYTES, Strain/Indicator: THY INCORP, Metabolic Activation: NONE",inactive; negative
O[C@@H]1[C@@H]2O[C@@H]2C=C[C@H]1O,mutagenic call,"Test System: AMES SALMONELLA TYPHIMURIUM, Strain/Indicator: TA97, Metabolic Activation: NONE, Method: PREINCUBATION",inactive; negative
same,mutagenic call,[1],inactive; negative
same,mutagenic call,[2],active; positive
Cn1c(N)nc2nc3ccccc3cc21,mutagenic call,"Test System: AMES SALMONELLA TYPHIMURIUM, Strain/Indicator: TA98, Metabolic Activation: RAT, LIVER, S-9, AROCLOR 1254A, Method: STANDARD PLATE",active; positive
same,mutagenic call,"Test System: AMES SALMONELLA TYPHIMURIUM, Strain/Indicator: YG1024, Metabolic Activation: RAT, LIVER, S-9, AROCLOR 1254A, Method: STANDARD PLATE",active; positive
CCn1c2ccccc2c2cc(C=O)ccc21,mutagenic call,[6],active; positive (structural changes)
O=[N+]([O-])c1cc(Cl)ccc1Cl,mutagenic call,[6],active; positive (structural changes); authors report equivocal results for ploidy chang
same,mutagenic call,[1],inactive; negative
same,mutagenic call,"Test System: AMES SALMONELLA TYPHIMURIUM, Strain/Indicator: TA98, Metabolic Activation: RAT LIVER S-9, PHENOBARBITAL AND BETA-NAPHTHOFLAVONE, Method: PREINCUBATION",inactive; negative
same,mutagenic call,"Test System: AMES SALMONELLA TYPHIMURIUM, Strain/Indicator: TA98, Metabolic Activation: RAT, LIVER, S-9, KANECHLOR 500, Method: PREINCUBATION",inactive; negative
same,mutagenic call,[5],inactive; negative
same,mutagenic call,"Test System: AMES SALMONELLA TYPHIMURIUM, Strain/Indicator: TA100, Metabolic Activation: RAT LIVER S-9, PHENOBARBITAL AND BETA-NAPHTHOFLAVONE, Method: PREINCUBATION",active; positive
same,mutagenic call,"Test System: AMES SALMONELLA TYPHIMURIUM, Strain/Indicator: TA100, Metabolic Activation: RAT, LIVER, S-9, KANECHLOR 500, Method: PREINCUBATION",active; positive
same,mutagenic call,[2],inactive; negative
same,mutagenic call,"Test System: AMES SALMONELLA TYPHIMURIUM, Strain/Indicator: TA1535, Metabolic Activation: RAT LIVER S-9, PHENOBARBITAL AND BETA-NAPHTHOFLAVONE, Method: PREINCUBATION",inactive; negative
same,mutagenic call,[3],inactive; negative
same,mutagenic call,"Test System: AMES SALMONELLA TYPHIMURIUM, Strain/Indicator: TA1537, Metabolic Activation: RAT LIVER S-9, PHENOBARBITAL AND BETA-NAPHTHOFLAVONE, Method: PREINCUBATION",inactive; negative
same,mutagenic call,"Test System: AMES SALMONELLA TYPHIMURIUM, Strain/Indicator: TA1538, Metabolic Activation: NONE, Method: PREINCUBATION",inactive; negative
same,mutagenic call,"Test System: AMES SALMONELLA TYPHIMURIUM, Strain/Indicator: TA1538, Metabolic Activation: RAT LIVER S-9, PHENOBARBITAL AND BETA-NAPHTHOFLAVONE, Method: PREINCUBATION",inactive; negative
same,mutagenic call,"Test System: E.COLI, Strain/Indicator: WP2UVRA, Metabolic Activation: NONE, Method: PREINCUBATION",inactive; negative
same,mutagenic call,"Test System: E.COLI, Strain/Indicator: WP2UVRA, Metabolic Activation: RAT LIVER S-9, PHENOBARBITAL AND BETA-NAPHTHOFLAVONE, Method: PREINCUBATION",inactive; negative

# — PubChem BioAssay AID1259407 (Chemical Carcinogenesis Research Information System (CCRIS), 2018)
